No end group written: not given here.
What was measured:
[1] = Rate of dipeptide cleavage from model hexapeptide in PBS
Method: The rate of cleavage was determined for the respective propeptides. The concentrations of the propeptides and the model parent peptide were determined by their respective peak areas. […] The slope of this plot provides the rate constant ‘k’.

diabetic mice = assay: Blood glucose, food intake and body weight in diabetic mice; format: in vivo; conditions: for blood glucose levels and duration of action: FIG. 15B
Method: Six- to eight-week-old male C57BL/6 mice were maintained at 23° C., constant humidity, and a 12-h light-dark cycle. The acute in vivo effects of select peptides were evaluated by subcutaneously injecting peptides solubilized in physiologically buffered saline or a vehicle control to normal or diabetic mice. Blood glucose was measured at various time points through the course of a 24 hr period following administration of the peptides. Each group of mice contained 8 animals per group. The average body weight was ˜25 g. Mice were made diabetic by administration of streptozotocin.
Repeat daily subcutaneous administration of the peptides or vehicle control was administered to the mice for periods of five days to two weeks. The obese mice were given a diabetogenic diet Mice had free access to water and were fed ad libitum with a high fat diet (HFD) comprising 58% of calories from fat (D12331; Research Diets, New Brunswick, N.J.) and each group of mice contained 8 animals per group. The average body weight was ˜50 g and the mice were ˜6 months old males. Body weight and food intake were measured on the days that peptide or vehicle control was administered to the mice. Fasting blood glucose levels were measured repeatedly.

Which t1/2 ([1]; Table 3, words or unit not given, PBS) does the source give for “KPHSRGTF-NH2 [Table 3 no. 9: K, P, H-SRGTF-NH2]” here?
Its t1/2 is “No cleavage”.

For “APHSRGTF-NH2 [Table 3 no. 5: A, P, H-SRGTF-NH2]”, which t1/2 ([1]; buffer) is on record?
Its t1/2 is “No cleavage”.

With “FPHSRGTF-NH2 [Table 3 no. 1: F, P, H-SRGTF-NH2]” as the compound, how does the t1/2 ([1]; buffer) read?
Its t1/2 is “No cleavage”.

Which t1/2 ([1]; Table 2, result in words, PBS) does the source give for `C[C@@H](O)[C@H](NC(=O)CNC(=O)[C@H](CCCNC(=N)N)NC(=O)[C@H](CO)NC(=O)[C@H](Cc1c[nH]cn1)NC(=O)[C@@H](N)Cc1ccc(NC(=O)CNC(=O)CN)cc1)C(=O)N[C@@H](Cc1ccccc1)C(N)=O` here?
The t1/2 was “No cleavage”.

Which t1/2 ([1]; buffer) does the source give for `C[C@@H](O)[C@H](NC(=O)CNC(=O)[C@H](CCCNC(=N)N)NC(=O)[C@H](CO)NC(=O)[C@H](Cc1c[nH]cn1)NC(=O)[C@@H]1CCCN1C(=O)[C@@H]1CCCN1)C(=O)N[C@@H](Cc1ccccc1)C(N)=O` [Table 3 no. 8: P, P, H-SRGTF-NH2] here?
The t1/2 was “No cleavage”.

For “CIU-021: HXEGTFTSDUSSYLEEQAAKEFIAWLVKGGPSSGAPPPSG (SEQ ID NO: 1958); Pen(S-S)—CH2CH2CH2-B^1 Insulin”, which “blood glucose levels and duration of action” value (diabetic mice) is on record?
The value was “demonstrate activity in reducing blood glucose levels and demonstrate an extended duration of action relative to native insulin”.

With `C[C@@H](O)[C@H](NC(=O)CNC(=O)[C@H](CCCNC(=N)N)NC(=O)[C@H](CO)NC(=O)[C@H](Cc1c[nH]cn1)NC(=O)[C@@H](N)Cc1ccc(NC(=O)CNC(=O)CO)cc1)C(=O)N[C@@H](Cc1ccccc1)C(N)=O` as the compound, how does the t1/2 ([1]; Table 2, result in words, PBS) read?
The t1/2 was “No cleavage”.

For “EPHSRGTF-NH2 [Table 3 no. 10: E, P, H-SRGTF-NH2]”, which t1/2 ([1]; buffer) is on record?
The t1/2 was “No cleavage”.

For `C[C@@H](O)[C@H](NC(=O)CNC(=O)[C@H](CCCNC(=N)N)NC(=O)[C@H](CO)NC(=O)[C@H](Cc1c[nH]cn1)NC(=O)[C@@H]1CCCN1C(=O)CO)C(=O)N[C@@H](Cc1ccccc1)C(N)=O`, which t1/2 ([1]; buffer) is on record?
Its t1/2 is “No cleavage”.

With `CNC(C)(C)C(=O)N1CCC[C@H]1C(=O)N[C@@H](Cc1c[nH]cn1)C(=O)N[C@@H](CO)C(=O)N[C@@H](CCCNC(=N)N)C(=O)NCC(=O)N[C@H](C(=O)N[C@@H](Cc1ccccc1)C(N)=O)[C@@H](C)O` [Table 3 no. 19: N—Me-Aib, P, H-SRGTF-NH2] as the compound, how does the half-life ([1]; buffer) read?
Its half-life is greater than 20.8 days.

Which t1/2 ([1]; buffer) does the source give for `C[C@@H](O)[C@H](NC(=O)CNC(=O)[C@H](CCCNC(=N)N)NC(=O)[C@H](CO)NC(=O)[C@H](Cc1c[nH]cn1)NC(=O)[C@@H]1CCCN1C(=O)[C@H]1CCCN1)C(=O)N[C@@H](Cc1ccccc1)C(N)=O` [Table 3 no. 13: d-P, P, H-SRGTF-NH2] here?
Its t1/2 is “No cleavage”.

Which t1/2 ([1]; buffer) does the source give for “CPHSRGTF-NH2 [Table 3 no. 6: C, P, H-SRGTF-NH2]” here?
Its t1/2 is “No cleavage”.

For “CIU-012: HXEGTFTSDUSSYLEEQAAKEFIAWLVKGGPSSGAPPPSG (SEQ ID NO: 1953); C(S-S)—CH2CH2CH2-B^1 Insulin”, which “blood glucose levels and duration of action” value (diabetic mice) is on record?
Its value is “demonstrate activity in reducing blood glucose levels and demonstrate an extended duration of action relative to native insulin”.

Which t1/2 ([1]; buffer) does the source give for `CC(C)=C(N)C(=O)N1CCC[C@H]1C(=O)N[C@@H](Cc1c[nH]cn1)C(=O)N[C@@H](CO)C(=O)N[C@@H](CCCNC(=N)N)C(=O)NCC(=O)N[C@H](C(=O)N[C@@H](Cc1ccccc1)C(N)=O)[C@@H](C)O` here?
Its t1/2 is “No cleavage”.

Which t1/2 ([1]; buffer) does the source give for `C[C@@H](O)[C@H](NC(=O)CNC(=O)[C@H](CCCNC(=N)N)NC(=O)[C@H](CO)NC(=O)[C@H](Cc1c[nH]cn1)NC(=O)[C@@H]1CCCN1C(=O)[C@@H](O)Cc1ccccc1)C(=O)N[C@@H](Cc1ccccc1)C(N)=O` here?
The t1/2 was “No cleavage”.

With “CIU-037: HXEGTFTSDVSSYLEEQAAREFIAWLVRGGPSSGAPPPSK(20K PEG) (SEQ ID NO: 1966); C(S-S)—CH2CH2CH2-B^1 Insulin” as the compound, how does the blood glucose levels (diabetic mice; 1, 2.5 or 5 nmol/kg, seven days, FIG. 17B) read?
The blood glucose levels was “improved blood glucose levels achieved relative to pegylated insulin”.

What about the blood glucose levels (diabetic mice; 5, 10 or 20 nmol/kg, FIG. 16B) of the same compound?
Its blood glucose levels is “blood glucose levels inversely proportional to the dose administered”.

And the “fat mass and lean mass” value (diabetic mice; FIG. 17E)?
Its value is “comes from fat mass and not lean mass”.

What about the food intake (diabetic mice; seven days, FIG. 17C) of the same compound?
Its food intake is “suppress food intake”.

And the body weight (diabetic mice; seven days, FIG. 17D)?
Its body weight is “induces loss in body weight”.

For “GPHSRGTF-NH2 [Table 3 no. 3: G, P, H-SRGTF-NH2]”, which t1/2 ([1]; buffer) is on record?
Its t1/2 is “No cleavage”.

From US10232020B2, “Incretin-insulin conjugates” (priority 2014, dated 2019)
